Test results taken from US20150087683A1, “TREATMENT METHOD FOR STEROID RESPONSIVE DERMATOSES” (GlaxoSmithKline Intellectual Property (No.2) Limited, priority 2012, published 2015).
Where “and” joins values, the source holds several entries; their conditions need not be identical. Equal entries are not always repeated.

Tests used:
primary keratinocytes = assay: CMap analysis using psoriasis disease signature against mRNA expression profiles of compound-treated primary keratinocytes (Assay #2); format: cell-based, human; details: for Ks down / Ks up / Raw Score / Scale Score: Keratinocyte
Experimental: The general procedure of Assay #1 was repeated with Compound C with substitution of primary keratinocytes. Primary keratinocytes were purchased from Zen-Bio, Inc. and grown in Zen-Bio, Inc. human adult keratinocyte growth medium (cat# KM-2).
Following the general procedure of Assay #1 for Day 1, keratinocytes plated on T225 flasks were trypsinized and resuspended in 17.4 mL of KM-2 medium. The cells were then seeded in the 6-well plates with 0.5×10^6 cells per well in a total 4 mL KM-2 medium.
Following the general procedure of Assay #1 for Day 2, keratinocytes were treated with the compound at the final concentrations of 1 uM and 10 uM for 6 hours. KM-2 medium containing test compound is aspirated from the cell monolayer. 350 ul of RLT buffer is added per well, the contents in each well were scraped and transferred to an appropriately labeled microfuge tube. Samples were frozen and stored at −80 C.
The subsequent sample processing, RNA purification and hybridization to the chips for microarray experiments were conducted by Expression Analysis, Inc. Durham N.C. (EA).

plaques of psoriasis = assay: Clinical result: psoriasis plaques in a patient of cancer trial PCS113124; format: in vivo; details: human, patient 1200
Source text: Compound C was in human clinical trials for the treatment of cancer.

MCF7 cells = assay: CMap analysis using psoriasis disease signature against mRNA expression profiles of compound-treated MCF7 cells (Assay #1); format: cell-based, human
Experimental: A general overview of the experimental protocol is indicated below.
The flask is incubated at 37 C for ˜2 minutes to dissociate the cells. • The dissociated cells are harvested with culture media, ˜10 ml/flask. • The harvested cell suspensions are pooled and re-suspended to ensure a homogenous suspension. • The suspension is divided into approximately 1e10̂6 cells per well. • The cells are spun down and re-suspended in fresh culture media to 1e10̂6 cells/2 mL media. • 2 ml of the adjusted cell suspension is dispensed into each well of 6-well plates. • The 6-well plates are incubated overnight at approximately 37 C: 5% CO2.
• An assay block, containing 3 ul 10 mM compound (small molecule)/well, is allowed to return to room temperature. • Culture media is warmed to 37 C. • 600 ul culture media is added to each well of assay block (containing 3 ul 10 mM compound). (=200× dilution) • Intermediate dilution is then 50 uM. • 500 ul of the intermediate dilution is transferred directly on to cells in 6-wells plated (in 2 ml) from previous day. (=5× dilution) • Cells then have 2.5 ml media on them. Final compound concentration is then 10 uM, final DMSO concentration is then 0.1%. • Treated cells are then returned to the incubator and treatment time is noted. • By way of example, if the final treatment concentration is to be something other than 10 uM, the stock should be adjusted first in DMSO so that the […] dilution still delivers 0.1% DMSO final.
• Fresh RLT buffer (QIAGEN)+2-Me is prepared. • After 6 hours of treatment, the 6-well plates are removed from incubator. • The test compound is aspirated from the cell monolayer. • 350 ul of RLT buffer is added per well. • Cells are scraped and the contents of each well is transferred to an appropriately labeled microfuge tube. • Freeze and store the samples at −80 C.
Frozen samples were shipped to Expression Analysis, Inc. Durham N.C. (EA) to generate RNA profiling data. To generate whole genome RNA expression profiles, samples were processed for RNA purification and hybridization to IllumanHT-12-V4 Expression BeadChips.
The significance of particular set of compound instance(s) of interest is estimated by permutation pvalue.

Cn1ncc(Cl)c1-c1cc(C(=O)N[C@H](CN)Cc2ccc(F)c(F)c2)oc1Cl [Compound C, N-{(1S)-2-amino-1-[(3,4-difluorophenyl)methyl]ethyl}-5-chloro-4-(4-chloro-1-methyl-1H-pyrazol-5-yl)-2-furancarboxamide]
Ks down (primary keratinocytes; 1 uM, Day 1): 0.112
Ks up (primary keratinocytes; 1 uM, Day 1): −0.22
Raw Score (primary keratinocytes; 1 uM, Day 1): −0.3324
Scale Score (primary keratinocytes; 1 uM, Day 1): −0.6723
Ks down (primary keratinocytes; 1 uM, Day 2): 0.172
Ks up (primary keratinocytes; 1 uM, Day 2): −0.248
Raw Score (primary keratinocytes; 1 uM, Day 2): −0.4204
Scale Score (primary keratinocytes; 1 uM, Day 2): −0.8504
Ks down (primary keratinocytes; 1 uM, Day 3): 0.124
Ks up (primary keratinocytes; 1 uM, Day 3): −0.139
Raw Score (primary keratinocytes; 1 uM, Day 3): −0.2625
Scale Score (primary keratinocytes; 1 uM, Day 3): −0.5309
Ks down (primary keratinocytes; 10 uM, Day 1): 0.112
Ks up (primary keratinocytes; 10 uM, Day 1): −0.213
Raw Score (primary keratinocytes; 10 uM, Day 1): −0.3251
Scale Score (primary keratinocytes; 10 uM, Day 1): −0.6576
Ks down (primary keratinocytes; 10 uM, Day 2): 0.115
Ks up (primary keratinocytes; 10 uM, Day 2): −0.296
Raw Score (primary keratinocytes; 10 uM, Day 2): −0.4104
Scale Score (primary keratinocytes; 10 uM, Day 2): −0.8302
Ks down (primary keratinocytes; 10 uM, Day 3): 0.114
Ks up (primary keratinocytes; 10 uM, Day 3): −0.241
Raw Score (primary keratinocytes; 10 uM, Day 3): −0.3551
Scale Score (primary keratinocytes; 10 uM, Day 3): −0.7182
gene expression changes versus gene expression changes observed in psoriasis (primary keratinocytes; primary keratinocytes): negatively correlated
course of mild plaques of psoriasis during treatment (plaques of psoriasis): generally got better and even disappeared at times
Enrichment Score (MCF7 cells; MCF7, 10 uM, 6 hours treatment): −0.8835
Mean CMap Score (MCF7 cells; MCF7, 10 uM, 6 hours treatment): −0.1867
CMap Score Distribution (MCF7 cells; MCF7, 10 uM, 6 hours treatment, individual instance scores): (−0.17 −0.17 and −0.21)
gene expression changes versus gene expression changes observed in psoriasis (MCF7 cells; MCF7 cells): negatively correlated
